# Patent US6589993B2, “Treating vancomycin-intermediates and multiresistant staphylococci infection with thiamphenicol or a salt thereof” (Zambon Group S.p.A., priority 2000, dated 2003)
# Where two headings read alike, the source gives them in different places.
# Tests used:
# [1] = system: S. aureus vancomycin-intermediates (VISA) Met-R strains; experiment: MIC determination (NCCLS broth microdilution), VISA Met-R strains; type: cell-based, Staphylococcus aureus; conditions: for MIC: antibiotype Oxa, Cip, Clin, Ery
# Procedure: (§1) The MICs of thiamphenicol and of other antibiotics was obtained by using the method proposed by NCCLS (National Committee for Clinical Laboratory Standards, 1999).
# (§2) Various antibiotic concentrations were added to bacteria in exponental growth (final inoculum 5×10^5 […]); dilution in Mb (cation-supplemented Mueller-Hinton broth) and distribution on a microplate by using an automatic diluting machine Biomek 1000 (Beckman, USA). MHb charged with 2% NaCl was used to test the methicillin activity.
# (§3) The antibiotic concentration which hinders a visible growth after 18-24 hours of incubation at 37° C., was registered as MIC.
# (§4) S. aureus ATCC 29213 was used as quality control strain.
# [2] = system: S. aureus Met-R multiresistant strains; experiment: MIC determination (NCCLS broth microdilution), methicillin-resistant multiresistant S. aureus strains; type: cell-based, Staphylococcus aureus; conditions: for % susceptible at breakpoint: NCCLS (1999) breakpoints; for MIC: antibiotype Oxa, Ery
# Procedure: as §1, §2, §3, §4
compound,measurement,setting,value
teicoplanine,MIC,[1]; Strain 51 VISA,8 µg/mL
same,MIC,[1]; Strain 52 VISA,8 µg/mL
same,MIC Range,[1]; VISA (2) Met-R,8 µg/mL
same,% susceptible at breakpoint,"[1]; VISA (2) Met-R, NCCLS (1999) breakpoints",100%
same,MIC 50%,[2]; S. aureus (50) Met-R,"0,5 mg/l"
same,MIC 90%,[2]; S. aureus (50) Met-R,1 µg/mL
same,MIC Range,[2]; S. aureus (50) Met-R,"0,12-2 mg/l"
same,% susceptible at breakpoint,[2]; S. aureus (50) Met-R,100%
same,MIC,"[2]; Strain 1, Cip, Clin, Gm",0.25 µg/mL
same,MIC,"[2]; Strain 2, Clin, Fos",0.5 µg/mL
same,MIC,"[2]; Strain 3, Cip, Clin, Gm",1 µg/mL
same,MIC,"[2]; Strain 4, Cip, Gm",0.5 µg/mL
same,MIC,"[2]; Strain 5, Cip, Clin",1 µg/mL
same,MIC,"[2]; Strain 6, Clin, Gm",1 µg/mL
same,MIC,"[2]; Strain 7, Cip, Gm",0.25 µg/mL
same,MIC,"[2]; Strain 8, Cip, Clin",0.25 µg/mL
same,MIC,"[2]; Strain 9, Cip, Clin, Gm",0.25 µg/mL
same,MIC,"[2]; Strain 10, Cip, Clin, Gm",0.25 µg/mL
same,MIC,"[2]; Strain 11, Clin, Rif",1 µg/mL
same,MIC,"[2]; Strain 12, Cip, Clin",1 µg/mL
same,MIC,"[2]; Strain 13, Cip, Clin",1 µg/mL
same,MIC,"[2]; Strain 14, Clin, Cip",0.5 µg/mL
same,MIC,"[2]; Strain 15, Cip, Clin, Gm",0.25 µg/mL
same,MIC,"[2]; Strain 16, Cip, Clin",1 µg/mL
same,MIC,"[2]; Strain 17, Cip, Clin",0.25 µg/mL
same,MIC,"[2]; Strain 18, Cip, Clin, Gm",1 µg/mL
same,MIC,"[2]; Strain 19, Cip, Clin, Gm",1 µg/mL
same,MIC,"[2]; Strain 20, Cip, Clin, Gm",0.25 µg/mL
same,MIC,"[2]; Strain 21, Cip, Clin, Gm",0.5 µg/mL
same,MIC,"[2]; Strain 22, Cip, Clin",0.25 µg/mL
same,MIC,"[2]; Strain 23, Cip, Clin, Gm",0.5 µg/mL
same,MIC,"[2]; Strain 24, Cip, Clin, Gm",0.5 µg/mL
same,MIC,"[2]; Strain 25, Cip, Clin, Gm",1 µg/mL
same,MIC,"[2]; Strain 26, Cip, Clin, Fos, Gm",1 µg/mL
same,MIC,"[2]; Strain 27, Cip, Clin, Fos, Gm",1 µg/mL
same,MIC,"[2]; Strain 28, Cip, Clin, Gm",0.5 µg/mL
same,MIC,"[2]; Strain 29, Clin, Fos",0.5 µg/mL
same,MIC,"[2]; Strain 30, Cip, Clin, Gm, SXT, Dox",1 µg/mL
same,MIC,"[2]; Strain 31, Cip, Clin, Fox, Gm",0.5 µg/mL
same,MIC,"[2]; Strain 32, Cip, Clin, Gm, SXT, Rif",0.5 µg/mL
same,MIC,"[2]; Strain 33, Cip, Clin, Gm",0.5 µg/mL
same,MIC,"[2]; Strain 34, Cip, Clin, Gm",0.25 µg/mL
same,MIC,"[2]; Strain 35, Cip, Clin, Gm",0.5 µg/mL
same,MIC,"[2]; Strain 36, Cip, Clin, Fos",1 µg/mL
same,MIC,"[2]; Strain 37, Cip, Clin, Fos, Gm",0.25 µg/mL
same,MIC,"[2]; Strain 38, Cip, Gm",0.25 µg/mL
same,MIC,"[2]; Strain 39, Cip, Clin, Fos, Gm",0.25 µg/mL
same,MIC,"[2]; Strain 40, Cip, Clin, Gm",0.25 µg/mL
same,MIC,"[2]; Strain 41, Cip, Clin",0.25 µg/mL
same,MIC,"[2]; Strain 42, Cip, Clin, Gm",0.12 µg/mL
same,MIC,"[2]; Strain 43, Cip, Clin, Gm",0.5 µg/mL
same,MIC,"[2]; Strain 44, Cip, Clin, Gm, Rif, Dox",1 µg/mL
same,MIC,"[2]; Strain 45, Cip, Clin, Gm, Rif, Dox, Fos",0.5 µg/mL
same,MIC,"[2]; Strain 46, Clin, Fos",0.25 µg/mL
same,MIC,"[2]; Strain 47, Cip, Clin, Gm",0.12 µg/mL
same,MIC,"[2]; Strain 48, Cip, Clin",2 µg/mL
same,MIC,"[2]; Strain 49, Cip, Gm",0.5 µg/mL
same,MIC,"[2]; Strain 50, Cip, Clin, Gm, Rif, Dox",0.5 µg/mL
"CCC[C@@H]1C[C@@H](C(=O)N[C@@H]([C@H]2O[C@H](SC)[C@H](O)[C@@H](O)[C@H]2O)[C@H](C)Cl)N(C)C1 [Clindamycin, clindamycin]",MIC,"[1]; Staphylococcus aureus, Strain 51 VISA, read-out: MIC",> 64 µg/mL
same,MIC,[1]; Strain 52 VISA,>64 µg/mL
same,MIC Range,[1]; VISA (2) Met-R,>64 µg/mL
same,% susceptible at breakpoint,[2]; S. aureus (50) Met-R,8%
same,MIC,"[2]; Staphylococcus aureus, Strain 1, Cip, Clin, Gm, read-out: MIC",> 64 µg/mL
same,MIC,"[2]; Staphylococcus aureus, Strain 2, Clin, Fos, read-out: MIC",> 64 µg/mL
same,MIC,"[2]; Staphylococcus aureus, Strain 3, Cip, Clin, Gm, read-out: MIC",> 64 µg/mL
same,MIC,"[2]; Staphylococcus aureus, Strain 4, Cip, Gm, read-out: MIC",≤ 0.06 µg/mL
same,MIC,"[2]; Staphylococcus aureus, Strain 5, Cip, Clin, read-out: MIC",> 64 µg/mL
same,MIC,"[2]; Staphylococcus aureus, Strain 6, Clin, Gm, read-out: MIC",> 64 µg/mL
same,MIC,"[2]; Staphylococcus aureus, Strain 7, Cip, Gm, read-out: MIC",≤ 0.06 µg/mL
same,MIC,"[2]; Staphylococcus aureus, Strain 8, Cip, Clin, read-out: MIC",> 64 µg/mL
same,MIC,"[2]; Staphylococcus aureus, Strain 9, Cip, Clin, Gm, read-out: MIC",> 64 µg/mL
same,MIC,"[2]; Staphylococcus aureus, Strain 10, Cip, Clin, Gm, read-out: MIC",64 µg/mL
same,MIC,"[2]; Staphylococcus aureus, Strain 11, Clin, Rif, read-out: MIC",> 64 µg/mL
same,MIC,"[2]; Staphylococcus aureus, Strain 12, Cip, Clin, read-out: MIC",> 64 µg/mL
same,MIC,"[2]; Staphylococcus aureus, Strain 13, Cip, Clin, read-out: MIC",> 64 µg/mL
same,MIC,"[2]; Staphylococcus aureus, Strain 14, Clin, Cip, read-out: MIC",> 64 µg/mL
same,MIC,"[2]; Staphylococcus aureus, Strain 15, Cip, Clin, Gm, read-out: MIC",> 64 µg/mL
same,MIC,"[2]; Staphylococcus aureus, Strain 16, Cip, Clin, read-out: MIC",> 64 µg/mL
same,MIC,"[2]; Staphylococcus aureus, Strain 17, Cip, Clin, read-out: MIC",> 64 µg/mL
same,MIC,"[2]; Staphylococcus aureus, Strain 18, Cip, Clin, Gm, read-out: MIC",> 64 µg/mL
same,MIC,"[2]; Staphylococcus aureus, Strain 19, Cip, Clin, Gm, read-out: MIC",> 64 µg/mL
same,MIC,"[2]; Staphylococcus aureus, Strain 20, Cip, Clin, Gm, read-out: MIC",64 µg/mL
same,MIC,"[2]; Staphylococcus aureus, Strain 21, Cip, Clin, Gm, read-out: MIC",> 64 µg/mL
same,MIC,"[2]; Staphylococcus aureus, Strain 22, Cip, Clin, read-out: MIC",> 64 µg/mL
same,MIC,"[2]; Staphylococcus aureus, Strain 23, Cip, Clin, Gm, read-out: MIC",> 64 µg/mL
same,MIC,"[2]; Staphylococcus aureus, Strain 24, Cip, Clin, Gm, read-out: MIC",> 64 µg/mL
same,MIC,"[2]; Staphylococcus aureus, Strain 25, Cip, Clin, Gm, read-out: MIC",64 µg/mL
same,MIC,"[2]; Staphylococcus aureus, Strain 26, Cip, Clin, Fos, Gm, read-out: MIC",64 µg/mL
same,MIC,"[2]; Staphylococcus aureus, Strain 27, Cip, Clin, Fos, Gm, read-out: MIC",64 µg/mL
same,MIC,"[2]; Staphylococcus aureus, Strain 28, Cip, Clin, Gm, read-out: MIC",> 64 µg/mL
same,MIC,"[2]; Staphylococcus aureus, Strain 29, Clin, Fos, read-out: MIC",> 64 µg/mL
same,MIC,"[2]; Staphylococcus aureus, Strain 30, Cip, Clin, Gm, SXT, Dox, read-out: MIC",16 µg/mL
same,MIC,"[2]; Staphylococcus aureus, Strain 31, Cip, Clin, Fox, Gm, read-out: MIC",> 64 µg/mL
same,MIC,"[2]; Staphylococcus aureus, Strain 32, Cip, Clin, Gm, SXT, Rif, read-out: MIC",64 µg/mL
same,MIC,"[2]; Staphylococcus aureus, Strain 33, Cip, Clin, Gm, read-out: MIC",> 64 µg/mL
same,MIC,"[2]; Staphylococcus aureus, Strain 34, Cip, Clin, Gm, read-out: MIC",> 64 µg/mL
same,MIC,"[2]; Staphylococcus aureus, Strain 35, Cip, Clin, Gm, read-out: MIC",64 µg/mL
same,MIC,"[2]; Staphylococcus aureus, Strain 36, Cip, Clin, Fos, read-out: MIC",64 µg/mL
same,MIC,"[2]; Staphylococcus aureus, Strain 37, Cip, Clin, Fos, Gm, read-out: MIC",64 µg/mL
same,MIC,"[2]; Staphylococcus aureus, Strain 38, Cip, Gm, read-out: MIC",≤ 0.06 µg/mL
same,MIC,"[2]; Staphylococcus aureus, Strain 39, Cip, Clin, Fos, Gm, read-out: MIC",64 µg/mL
same,MIC,"[2]; Staphylococcus aureus, Strain 40, Cip, Clin, Gm, read-out: MIC",> 64 µg/mL
same,MIC,"[2]; Staphylococcus aureus, Strain 41, Cip, Clin, read-out: MIC",64 µg/mL
same,MIC,"[2]; Staphylococcus aureus, Strain 42, Cip, Clin, Gm, read-out: MIC",64 µg/mL
same,MIC,"[2]; Staphylococcus aureus, Strain 43, Cip, Clin, Gm, read-out: MIC",64 µg/mL
same,MIC,"[2]; Staphylococcus aureus, Strain 44, Cip, Clin, Gm, Rif, Dox, read-out: MIC",64 µg/mL
same,MIC,"[2]; Staphylococcus aureus, Strain 45, Cip, Clin, Gm, Rif, Dox, Fos, read-out: MIC",64 µg/mL
same,MIC,"[2]; Staphylococcus aureus, Strain 46, Clin, Fos, read-out: MIC",64 µg/mL
same,MIC,"[2]; Staphylococcus aureus, Strain 47, Cip, Clin, Gm, read-out: MIC",64 µg/mL
same,MIC,"[2]; Staphylococcus aureus, Strain 48, Cip, Clin, read-out: MIC",64 µg/mL
same,MIC,"[2]; Staphylococcus aureus, Strain 49, Cip, Gm, read-out: MIC",≤ 0.06 µg/mL
same,MIC,"[2]; Staphylococcus aureus, Strain 50, Cip, Clin, Gm, Rif, Dox, read-out: MIC",> 64 µg/mL
same,MIC50,"[2]; Staphylococcus aureus, S. aureus (50) Met-R, read-out: MIC 50%",> 64 µg/mL
same,MIC90,"[2]; Staphylococcus aureus, S. aureus (50) Met-R, read-out: MIC 90%",> 64 µg/mL
